Tests used:
hCMVEC cells = experiment: Scrape load assay (Lucifer yellow dye transfer); type: cell-based, human
Description: In the below Examples 2, 4, 5, 8 and 10 using human cerebral microvascular endothelial cells (hCMVEC), cells were prepared by growing them in collagen coated (30 μg/mL) T25 or T75 flasks maintained in Medium M199 supplemented with 10% FCS, 1 μg/mL hydrocortisone, 3 ng/mL hFGF, 1 ng/mL hEGF, 10 μg/mL heparin, 1× penicillin streptomycin neomycin (Life Technologies), and cAMP (100 μL 100% cAMP to 100 mL media). Cells were maintained at 37° C. with 95% O2 and 5% CO2.
In this Example, human cerebral microvascular endothelial cells (hCMVEC) were grown in collagen coated (1 μg/mL) T25 flasks maintained in Medium M199 supplemented with 10% FBS, 1 μg/mL hydrocortisone, 3 ng/mL hFGF, 1 ng/mL hEGF, 10 μg/mL heparin and cAMP (100 μL 100% cAMP to 100 mL media) in a humidified atmosphere at 37° C. with 5% CO2. One day prior to experimentation, these cells were trypsinized and plated at a density of 4×10^5 cells/well in a collagen-coated 12 well-plate in the same medium. For treatments, cells were cultured in the presence of peptide5, a control gap junction channel blocker (carbenoxolone), or tonabersat for the respective time intervals prior to scrape dye loading. The blockers were also present in the respective scrape loading solutions.
For scrape loading the hCMVEC cells were washed three times with phosphate buffered saline (PBS) (without divalent cations). A solution of PBS+0.05% lucifer yellow was added to cells. The cells then received a scrape to the monolayer using a size 10 carbon steel surgical blade and incubated in the dark at 37° C. with 5% CO2 for 5 minutes. The cells were washed with PBS four times and then 1 mL of PBS added for fluorescent microscopy.
The live cells were then imaged on a Nikon TE2000E fluorescent microscope whilst maintained in a chamber heated to 37° C. with 5% CO2. Three images pairs were obtained at 10× magnification for each of a phase contrast image to view total cells and a fluorescent image to visualize Lucifer yellow using 488 nm excitation and a GFP filter block. Gap junctional communication was determined by counting the number of Lucifer yellow positive cells and presented as a percentage to the positive cells of the control group. Data was graphed as mean+standard error of the mean using Prism v5.02 software. Significance was determined through students two-tailed, unpaired, T Tests. *=p<0.05, **=[…], ***=p<0.001.
An in vitro scrape-loading assay with extracellular Lucifer Yellow (LY), a fluorescent dye that is transferred only through coupled GJs was performed to test whether Tonabersat inhibits GJ communication (M. H. el-Fouly, et al., Experimental cell research 168, 422 (February, 1987)). A single scrape wound was made to a confluent monolayer of hCMVEC cells to enable LY dye to gain access to the cytoplasm of cells at the edge of the wounded region and allow the dye to transfer to adjacent cells through GJs.

[1] = test system: Cx43 mRNA in ARPE-19 cells; experiment: Real-time reverse transcription PCR of Cx43 mRNA; type: cell-based, human; details: 50 μM, 1 h, versus untreated and vehicle controls
Description: In the below Examples 3, 6 and 7 using human retinal epithelial (ARPE-19) cells, the cells were grown in DMEM/F: 12 (Invitrogen), supplemented with 10% fetal calf serum (FCS), 100 units/mL of penicillin, 100 μg/mL of streptomycin, and 0.25 μg/mL of Fungizone® Antimycotic (Invitrogen).
Real time reverse transcription PCR was used to determine the relative level of Cx43 mRNA. A confluent monolayer of ARPE-19 cells was treated with Tonabersat for 1 hour. Cells were harvested with TRIzol® (Life Technologies), and total RNA was isolated using […] according to manufacturer's instructions. All RNA samples were quantified using a nanodrop 1000 micro volume spectrophotometer (Thermo Scientific). cDNA from samples were synthesised using SuperScript® III First-Strand Synthesis SuperMix (Invitrogen) according to manufacturer's instructions. Primer sequences for hCx43, GenBank Accession No. M65188.1, were obtained from the Harvard Primer bank. […] The appropriate reference gene to be used for relative fold-difference in Cx43 mRNA was determined by screening commonly used house-keeping genes, ß-actin [ACTB], Hypoxanthine phosphoribosyltransferase 1 [HPRT1], peptidylprolyl isomerase A [PPIA], and glyceraldehyde-3-phosphate dehydrogenase [GAPDH]. […] Relative changes in Cx43 mRNA expression were calculated as fold-differences against ß-actin using the 2-ΔΔCt method. […]

CC(=O)c1ccc2c(c1)[C@H](NC(=O)c1ccc(F)c(Cl)c1)[C@H](O)C(C)(C)O2 [Tonabersat, N-[(3S,4S)-6-acetyl-3-hydroxy-2,2-dimethyl-3,4-dihydrochromen-4-yl]-3-chloro-4-fluorobenzamide]
concentration at which GJs are uncoupled (hCMVEC cells): ≥ 50 µM
time to gap junction uncoupling effect (hCMVEC cells; 50 μM): ≤ 1 min
gap junction uncoupling (LY dye transfer) (hCMVEC cells; 50 μM added immediately): did not significantly reduce GJ coupling
gap junction uncoupling (LY dye transfer) (hCMVEC cells; 50 μM added immediately, listed as tonabersat): statistically significant gap junction uncoupling effect
gap junction uncoupling (LY dye transfer) (hCMVEC cells; 50 μM, 1 hour prior to the assay): did not significantly reduce GJ coupling
LY positive cells compared to control (hCMVEC cells; 50 μM, 2 hours): 72.5±7.4%
LY positive cells compared to control (hCMVEC cells; 50 μM, 6 hours): 62.8±7.4%
LY positive cells compared to control (hCMVEC cells; 50 μM, 24 hours): 50.5±8.4%
LY positive cells compared to control (hCMVEC cells; 100 μM): 46.7±7.8%
LY positive cells compared to control (hCMVEC cells; 0.1, 1 and 10 μM, 2 hours): no significant reduction in LY positive cells
LY positive cells compared to control (hCMVEC cells; 0.1, 1 and 10 μM, 24 hours): no significant reduction in LY positive cells
Cx43 mRNA level relative to ß-actin [1]: no significant difference in Cx43 mRNA
